# According to patent US9067974B2, “Polymyxin derivatives and uses thereof” (priority 2006, dated 2015):
# Bridge positions count the residues as written; N and C are the ends. Square brackets hold non-standard residues; d marks the D form. Peptide text beside a SMILES is read from it. * marks the point of attachment. Octanoyl = CCCCCCCC(=O)*; Dab = NCC[C@H](N)C(=O)O; Abu = CC[C@H](N)C(=O)O
# Experiments:
# K. pneumoniae CCUG45421 = assay: E-test MIC of antibiotics on Mueller-Hinton agar with or without NAB7061 (4 μg/ml); sensitization factor = MIC ratio absence/presence; type: cell-based, Klebsiella pneumoniae; conditions: NAB 7061 4 μg/ml
# Procedure: (§1) MICs were determined by using E-strips (Biodisk Ltd., Solna, Sweden) according to the manufacturer's instructions.
# (§2) The strains originated from ATCC (11 strains), CCUG (11 strains), and NCTC (The National Collection of Type Cultures, Colindale, U.K.; 2 strains). Eight strains (the F-strains) were purchased from Mobidiag Ltd., Helsinki, Finland. The source of E. coli IH3080 has been given in Example 2. Sensitization factor was defined as in Example 7.
# K. pneumoniae F136 = assay: as above; type: cell-based, Klebsiella pneumoniae
# Procedure: as §1, §2
# K. pneumoniae F145 = assay: as above; type: cell-based, Klebsiella pneumoniae
# Procedure: as §1, §2
# K. pneumoniae F144 = assay: as above; type: cell-based, Klebsiella pneumoniae
# Procedure: as §1, §2
# [1] = test system: E. coli (ATCC25922 and IH3080), K. pneumoniae ATCC13883, and E. cloacae ATCC23355; assay: E-test sensitization by NAB7061 (4 μg/ml), summary over the tested strains of Table 7; type: cell-based; conditions: range over the tested strains
# Procedure: as §1
# [2] = test system: Ps. aeruginosa ATCC 27853; assay: Sensitization to rifampin: well diffusion growth inhibition on LB plates containing rifampin; type: cell-based, Pseudomonas aeruginosa; conditions: 4 μg of compound
# A. baumannii ATCC 19606 = assay: as above; type: cell-based, Acinetobacter baumannii; conditions: 4 μg of compound
# S. marcescens ATCC8100 = assay: E-test MIC of antibiotics on Mueller-Hinton agar with or without NAB7061 (4 μg/ml); sensitization factor = MIC ratio absence/presence; type: cell-based, Serratia marcescens
# Procedure: as §1, §2
# [3] = Two-week intravenous toxicity study in young rats; type: in vivo
# Procedure: Toxicity in young rats (weighing approx. 150 g in the beginning of the study) was determined by administering doses (1, 2, 4, 8, 16, and 32 mg/kg per day) of NAB7061 as well as the control compound polymyxin B intravenously twice (2) a day for two weeks. A group of ten (10) rats was studied for each dosis regimen. Clinical observations were made daily, the body weight measured twice weekly, and the food consumption twice weekly. In the end of week 2, all animals were sacrificed.
# Histopathology of kidneys was performed for each animals and histopathology of all tissues was performed in three high-dose groups receiving NAB7061.
# S. maltophilia ATCC17444 = assay: E-test MIC of antibiotics on Mueller-Hinton agar with or without NAB7061 (4 μg/ml); sensitization factor = MIC ratio absence/presence; type: cell-based
# Procedure: as §1, §2
# E. coli NCTC13351 = assay: as above; type: cell-based, Escherichia coli
# Procedure: as §1, §2
# E. coli CCUG41424 = assay: as above; type: cell-based, Escherichia coli
# Procedure: as §1, §2
# E. coli CCUG41421 = assay: as above; type: cell-based, Escherichia coli
# Procedure: as §1, §2
# E. coli CCUG41422 = assay: as above; type: cell-based, Escherichia coli
# Procedure: as §1, §2
# E. coli CCUG41425 = assay: as above; type: cell-based, Escherichia coli
# Procedure: as §1, §2
# E. coli CCUG41427 = assay: as above; type: cell-based, Escherichia coli
# Procedure: as §1, §2
# E. coli CCUG41432 = assay: as above; type: cell-based, Escherichia coli
# Procedure: as §1, §2
# E. coli IH3080 (K1:O18) = assay: Well diffusion growth inhibition on LB agar plates (direct antibacterial activity); type: cell-based, Escherichia coli
# Outline: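 Growth inhibition of encapsulated E. coli IH3080 (K1:O18) was measured by well diffusion on LB agar plates. A suspension of about 10^8 cells/ml in 0.9% NaCl, made from an overnight LB agar culture, was spread over the plates and the excess removed. Once dry, five 2 mm wells were drilled per plate and test solutions added, with 0.9% NaCl as control. After 18 h at 37° C, inhibition zone diameters were measured and converted to surface areas in square mm.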
structure (smiles),measurement,setting,value
"CCCCCCCC(=O)N[C@H](C(=O)N[C@@H](CC)C(=O)N[C@H]1CCNC(=O)[C@H]([C@@H](C)O)NC(=O)[C@H](CCN)NC(=O)[C@H](CCN)NC(=O)[C@H](CC(C)C)NC(=O)[C@@H](Cc2ccccc2)NC(=O)[C@H](CCN)NC1=O)[C@@H](C)O [NAB 7061, OA-Thr-Abu-cy[Dab-Dab-DPhe-Leu-Dab-Dab-Thr-]] (Octanoyl-T[Abu][Dab][Dab][dF]L[Dab][Dab]T; lactam 3-C)",Sensitization factor to rifampin,K. pneumoniae CCUG45421,10-20
same,MIC of clarithromycin in the presence of 4 μg/ml of NAB 7061,K. pneumoniae F136,2 µg/mL
same,MIC of rifampin in the presence of 4 μg/ml of NAB 7061,K. pneumoniae F136,0.75 µg/mL
same,MIC of clarithromycin in the presence of 4 μg/ml of NAB 7061,K. pneumoniae F145,0.25 µg/mL
same,MIC of rifampin in the presence of 4 μg/ml of NAB 7061,K. pneumoniae F145,0.19 to 0.25 µg/mL
same,MIC of rifampin in the presence of 4 μg/ml of NAB 7061,K. pneumoniae F144,0.19 µg/mL
same,Sensitization factor to rifampin,K. pneumoniae F144; NAB 7061 4 μg/ml,>170
same,Sensitization factor to azithromycin,[1],31-94
same,Sensitization factor to clarithromycin,[1],63-380
same,Antibacterial activity in the presence of rifampin (growth inhibition area around a well),[2]; rifampin 0 μg/ml,0 square millimeters
same,Antibacterial activity in the presence of rifampin (growth inhibition area around a well),[2]; rifampin 0.1 μg/ml,0 square millimeters
same,Antibacterial activity in the presence of rifampin (growth inhibition area around a well),[2]; rifampin 0.3 μg/ml,0 square millimeters
same,Antibacterial activity in the presence of rifampin (growth inhibition area around a well),A. baumannii ATCC 19606; rifampin 0 μg/ml,0 square millimeters
same,Antibacterial activity in the presence of rifampin (growth inhibition area around a well),A. baumannii ATCC 19606; rifampin 0.1 μg/ml,28 square millimeters
same,Antibacterial activity in the presence of rifampin (growth inhibition area around a well),A. baumannii ATCC 19606; rifampin 0.3 μg/ml,50 square millimeters
same,MIC of rifampin in the presence of 4 μg/ml of NAB 7061,S. marcescens ATCC8100,16 µg/mL
same,Rise of blood urea nitrogen (BUN) versus control or low dose group,"[3]; rat, in vivo, 16 mg/kg/day",no such a rise was found
same,Lowest dose that negatively influenced the body weight gain,"[3]; rat, in vivo, iv",8 mg/kg per day
same,Survival throughout the study,"[3]; rats, doses 1 to 32 mg/kg per day intravenously for two weeks",all rats receiving NAB7061 remained alive throughout the study
same,General pathology and histopathology of organs and kidneys,"[3]; rats, two weeks intravenous dosing",No NAB7061-related pathological findings were found
same,MIC of rifampin in the presence of 4 μg/ml of NAB 7061,S. maltophilia ATCC17444,2 µg/mL
same,MIC of clarithromycin in the presence of 4 μg/ml of NAB 7061,E. coli NCTC13351,0.032 µg/mL
same,MIC of rifampin in the presence of 4 μg/ml of NAB 7061,E. coli NCTC13351,0.032 to 0.047 µg/mL
same,Sensitization factor to rifampin,E. coli NCTC13351; NAB 7061 4 μg/ml,340-500
same,MIC of clarithromycin in the presence of 4 μg/ml of NAB 7061,E. coli CCUG41424,0.125 µg/mL
same,Sensitization factor to rifampin,E. coli CCUG41424; NAB 7061 4 μg/ml,85-94
same,MIC of clarithromycin in the presence of 4 μg/ml of NAB 7061,E. coli CCUG41421,0.125 µg/mL
same,MIC of clarithromycin in the presence of 4 μg/ml of NAB 7061,E. coli CCUG41422,0.25 µg/mL
same,Sensitization factor to rifampin,E. coli CCUG41422; NAB 7061 4 μg/ml,170-256
same,MIC of clarithromycin in the presence of 4 μg/ml of NAB 7061,E. coli CCUG41425,0.047 µg/mL
same,MIC of clarithromycin in the presence of 4 μg/ml of NAB 7061,E. coli CCUG41427,0.064 µg/mL
same,MIC of rifampin in the presence of 4 μg/ml of NAB 7061,E. coli CCUG41427,0.032 to 0.064 µg/mL
same,Sensitization factor to rifampin,E. coli CCUG41427; NAB 7061 4 μg/ml,100-250
same,MIC of clarithromycin in the presence of 4 μg/ml of NAB 7061,E. coli CCUG41432,0.064 µg/mL
same,MIC of rifampin in the presence of 4 μg/ml of NAB 7061,E. coli CCUG41432,0.032 µg/mL
same,Sensitization factor to rifampin,E. coli CCUG41432; NAB 7061 4 μg/ml,180-250
same,Antibacterial activity (growth inhibition area around a well),E. coli IH3080 (K1:O18); 4 μg of compound per well,0 square millimeters
same,Antibacterial activity (growth inhibition area around a well),E. coli IH3080 (K1:O18); 10 μg of compound per well,50 square millimeters
